test system: HepG2 cells; test: In vitro lipid-lowering activity: DiI-LDL uptake in HepG2 cells; assay type: cell-based; settings: Homo sapiens, test compound 5 uM, 24 h, DiI-LDL 20 ug/ml, 3 h, FLU of sample group/FLU of blank group x100%, read-out: LDL uptake rate
Protocol: HepG2 cells were inoculated in 24-well plates, cultured in DMEM containing 10% FBS for 24 h or 48 h, and then transferred to DMEM containing 2% defatted serum and cultivated for 24 h. The old culture solution was discarded and replaced with new 2% defatted serum DMEM, and a test compound (the working concentration of which is 5 uM, triplicate for each sample) was added and incubated for 24 h. The old culture solution was abandoned and DMEM containing DiI-LDL (20 ug/ml) was added (300 ul/per 24 wells), incubated for 3 h. DMEM containing DiI-LDL was discarded, and cells were rinsed twice with PBS containing 0.4% BSA, and 3 times with PBS to remove excess DiI-LDL. Isopropanol was added (500 ul/per well of a 24-well plate), and was kept in darkness. After shaken for 20 minutes, 200 ul of supernatant was sucked to a black fluorescent plate, and fluorescence intensity (FLU) was detected at excitation light 520 nm and emission light 578 nm. The experimental results were calculated: LDL uptake rate=(FLU value of sample group to be tested/FLU value of blank group)×100%.

In order of rising activity at 5 µM:
1. COc1cc2c(cc1OCc1ccc(C)cc1)CCN1Cc3c(c4ccccc4n3CO)CC21 (stereo not shown) [Example A70, (2-methoxy-3-((4-methylbenzyl)oxy)-5,6,14,14a-tetrahydroindolo[3′,2′:4,5]pyridine[2,1-a]isoquinoline-9(8H)-yl)methanol]  80.6%
2. COc1cc2c(cc1OCc1ccc(C)cc1)CCN1Cc3[nH]c4ccccc4c3CC21 (stereo not shown) [Example C60]  84.3%
3. COc1cc2c(cc1OCc1cccc(C)c1)CCN1Cc3c(c4ccccc4n3CO)CC21 (stereo not shown) [Example A143, (2-methoxy-3-((3-methylbenzyl)oxo)-5,6,14,14a-tetrahydroindolo[3′,2′:4,5]pyridine[2,1-a]isoquinoline-9(8H)-yl)methanol]  91.1%
4. COc1ccc2[nH]c3c(c2c1)CC1c2cc(OCc4ccccc4F)c(OC)cc2CCN1C3c1ccc(F)cc1 (stereo not shown) [Example B9, 2-((2-fluorobenzyl)oxo)-8-(4-fluorophenyl)-3,12-dimethoxy-5,6,8,9,14,14a-hexahydroindole[3′,2′:4,5]pyridine[2,1-a]isoquinoline]  94.3%
5. COc1ccc2c(c1)c1c(n2CO)CN2CCc3cc(OC)c(OC)cc3C2C1 (stereo not shown) [Example A37, (2,3,12-Trimethoxy-5,6,14,14a-tetrahydroindolo[3′,2′:4,5]pyridine[2,1-a]isoquinoline-9(8H)-yl)methanol]  99.1%
6. OCn1c2c(c3ccccc31)CC1c3cc4c(cc3CCN1C2)OCO4 (stereo not shown) [Example A109, (5,6,14,14a-tetrahydro-[1,3]dioxazo[4,5-g]indolo[3′,2′:4,5]pyridine[2,1-a]isoquinoline-9(8H)-yl)methanol]  100%
7. COc1cccc(COc2cc3c(cc2OC)CCN2C3Cc3c([nH]c4ccc(OC)cc34)C2c2ccc(F)cc2)c1 (stereo not shown) [Example B13, 8-(4-Fluorophenyl)-3,12-dimethoxy-2-((3-methoxybenzyl)oxo)-5,6,8,9,14,14a-hexahydroindolo[3′,2′:4,5]pyridine[2,1-a]isoquinoline]  105%
8. COc1cccc(COc2cc3c(cc2OC)CCN2Cc4c(c5cc(OC)ccc5n4CO)CC32)c1 (stereo not shown) [Example A13, (3,12-Dimethoxy-2-((3-methoxybenzyl)oxo)-5,6,14,14a-tetrahydroindolo[3′,2′:4,5]pyridine[2,1-a]isoquinoline-9(8H)-yl)methanol]  107%
9. COc1cc2c(cc1OCc1ccc(C)cc1)C1Cc3c([nH]c4ccccc34)C(c3ccc(F)cc3)N1CC2 (stereo not shown) [Example B16, 8-(4-Fluorophenyl)-3-methoxy-2-((4-methylbenzyl)oxo)-5,6,8,9,14,14a-hexahydroindolo[3′,2′:4,5]pyridine[2,1-a]isoquinoline]  107%
10. COc1cc2c(cc1OCc1ccccc1F)C1Cc3c(n(CO)c4ccccc34)CN1CC2 (stereo not shown) [Example A10, (2-((2-fluorobenzyl)oxy)-3-methoxy-5,6,14,14a-tetrahydroindolo[3′,2′:4,5]pyridine[2,1-a]isoquinoline-9(8H)-yl)methanol]  108%
11. COc1cc2c(cc1OCc1ccc(F)cc1)CCN1Cc3c(c4ccccc4n3CO)CC21 (stereo not shown) [Example A60]  108%
12. COc1ccc2c(c1)c1c(n2CO)CN2CCc3cc(OCc4cccc(C)c4)c(OC)cc3C2C1 (stereo not shown) [Example A142, (2,12-Dimethoxy-3-((3-methylbenzyl)oxo)-5,6,14,14a-tetrahydroindolo[3′,2′:4,5]pyridine[2,1-a]isoquinoline-9(8H)-yl)methanol]  108%
13. COc1cc2c(cc1OCc1ccc(F)cc1)C1Cc3c([nH]c4ccccc34)C(c3ccc(F)cc3)N1CC2 (stereo not shown) [Example B6, 2-((4-fluorobenzyl)oxo)-8-(4-fluorophenyl)-3-methoxy-5,6,8,9,14,14a-hexahydroindole[3′,2′: 4,5]pyridine[2,1-a]isoquinoline]  108%
14. COc1cc2c(cc1OCc1ccccc1F)C1Cc3c([nH]c4ccccc34)C(c3ccc(F)cc3)N1CC2 (stereo not shown) [Example B10, 2-((2-fluorobenzyl)oxo)-8-(4-fluorophenyl)-3-methoxy-5,6,8,9,14,14a-hexahydroindole[3′,2′: 4,5]pyridine[2,1-a]isoquinoline]  108%
15. COc1ccc2[nH]c3c(c2c1)CC1c2cc(OC)c(OCc4ccc(F)cc4)cc2CCN1C3c1ccc(F)cc1 (stereo not shown) [Example B59, 3-((4-fluorobenzyl)oxo)-8-(4-fluorophenyl)-2,12-dimethoxy-5,6,8,9,14,14a-hexahydroindole[3′,2′:4,5]pyridine[2,1-a]isoquinoline]  109%
16. COc1cc2c(cc1OCc1ccccc1F)CCN1Cc3[nH]c4ccccc4c3CC21 (stereo not shown) [Example C54, 3-((2-fluorobenzyl)oxo)-2-methoxy-5,6,8,9,14,14a-hexahydroindole[3′,2′:4,5]pyridine[2,1-a]isoquinoline]  110%
17. COc1ccc2[nH]c3c(c2c1)C[C@H]1c2cc(OCc4ccc(C(F)(F)F)cc4)c(OC)cc2CCN1C3 [(S)-C3]  111%
18. COc1ccc2[nH]c3c(c2c1)CC1c2cc(OCc4ccc(C)cc4)c(OC)cc2CCN1C3c1ccc(F)cc1 (stereo not shown) [Example B15, 8-(4-Fluorophenyl)-3,12-dimethoxy-2-((4-methylbenzyl)oxo)-5,6,8,9,14,14a-hexahydroindolo[3′,2′:4,5]pyridine[2,1-a]isoquinoline]  111%
19. COc1ccc2[nH]c3c(c2c1)CC1c2cc(OC)c(OCc4cccc(C)c4)cc2CCN1C3 (stereo not shown) [Example C106, 2,12-dimethoxy-3-((3-methylbenzyl)oxo)-5,6,8,9,14,14a-hexahydroindolo[3′,2′:4,5]pyridine[2,1-a]isoquinoline]  111%
20. COc1ccc2c(c1)c1c(n2CO)CN2CCc3cc(OCc4ccc(C(F)(F)F)cc4)c(OC)cc3C2C1 (stereo not shown) [Example A57, (2,12-Dimethoxy-3-((4-(trifluoromethyl)benzyl)oxy)-5,6,14,14a-tetrahydroindolo[3′,2′:4,5]pyridine[2,1-a]isoquinoline-9(8H)-yl)methanol]  112%
21. COc1ccc2c(c1)c1c(n2CO)CN2CCc3cc(OC)c(OCc4ccccc4F)cc3C2C1 (stereo not shown) [Example A9, (2-((2-fluorobenzyl)oxy)-3,12-dimethoxy-5,6,14,14a-tetrahydroindolo[3′,2′:4,5]pyridine[2,1-a]isoquinoline-9(8H)-yl)methanol]  113%
22. COc1cc2c(cc1OCc1ccc(F)cc1)CCN1C2Cc2c([nH]c3ccccc23)C1c1ccc(F)cc1 (stereo not shown) [Example B60, 3-((4-fluorobenzyl)oxo)-8-(4-fluorophenyl)-2-methoxy-5,6,8,9,14,14a-hexahydroindole[3′,2′: 4,5]pyridine[2,1-a]isoquinoline]  114%
23. COc1ccc2c(c1)c1c(n2CO)CN2CCc3cc(OC)c(OCc4ccc(C)cc4)cc3C2C1 (stereo not shown) [Example A15, (3,12-Dimethoxy-2-((4-methylbenzyl)oxy)-5,6,14,14a-tetrahydroindolo[3′,2′:4,5]pyridine[2,1-a]isoquinoline-9(8H)-yl)methanol]  115%
24. COc1ccc2c(c1)c1c(n2CO)CN2CCc3cc(OC)c(OCc4ccccc4)cc3[C@@H]2C1 [(S)-A1]  116%
25. COc1ccc2[nH]c3c(c2c1)CC1c2cc(OC)c(OCc4cccc(F)c4)cc2CCN1C3c1ccc(F)cc1 (stereo not shown) [Example B61, 3-((3-fluorobenzyl)oxo)-8-(4-fluorophenyl)-2,12-dimethoxy-5,6,8,9,14,14a-hexahydroindole[3′,2′:4,5]pyridine[2,1-a]isoquinoline]  116%
26. COc1ccc2c(c1)c1c(n2CO)CN2CCc3cc(OCc4ccccc4)c(OC)cc3[C@@H]2C1 [(S)-A55]  120%
27. COc1cc2c(cc1OC)C1Cc3c(n(CO)c4ccccc34)CN1CC2 (stereo not shown) [Example A38, (2,3-dimethoxy-5,6,14,14a-tetrahydroindolo[3′,2′:4,5]pyridine[2,1-a]isoquinoline-9(8H)-yl)methanol]  123%
28. COc1ccc2c(c1)c1c(n2CO)CN2CCc3cc(OC)c(OCC(F)(F)F)cc3C2C1 (stereo not shown) [Example A39, (3,12-Dimethoxy-2-(2,2,2-trifluoroethoxy)-5,6,14,14a-tetrahydroindolo[3′,2′:4,5]pyridine[2,1-a]isoquinoline-9(8H)-yl)methanol]  147%
29. COc1ccc2c(c1)c1c(n2CO)CN2CCc3cc(OC)c(OCc4ccccc4)cc3[C@H]2C1 [(R)-A1]  185%
30. COc1ccc2[nH]c3c(c2c1)CC1c2cc(OC)c(OCc4cccc(F)c4)cc2CCN1C3 (stereo not shown) [Example C51, 3-((3-Fluorobenzyl)oxo)-2,12-dimethoxy-5,6,8,9,14,14a-hexahydroindole[3′,2′:4,5]pyridine[2,1-a]isoquinoline]  192%
31. COc1ccc2c(c1)c1c(n2CO)CN2CCc3cc(OCc4ccccc4)c(OC)cc3[C@H]2C1 [(R)-A55]  200%
32. COc1ccc2[nH]c3c(c2c1)C[C@@H]1c2cc(OCc4ccc(C(F)(F)F)cc4)c(OC)cc2CCN1C3 [(R)-C3]  218%
33. COc1ccc2[nH]c3c(c2c1)C[C@H]1c2cc(OC)c(OCc4ccc(C(F)(F)F)cc4)cc2CCN1C3 [(S)-C47, (S)-2,12-Dimethoxy-3-((4-(trifluoromethyl)benzyl)oxo)-5,6,8,9,14,14a-hexahydroindolo[3′,2′:4,5]pyrido[2,1-a]isoquinoline]  273%
34. COc1ccc2[nH]c3c(c2c1)C[C@@H]1c2cc(OC)c(OCc4ccc(C(F)(F)F)cc4)cc2CCN1C3 [(R)-C47, (R)-2,12-Dimethoxy-3-((4-(trifluoromethyl)benzyl)oxy)-5,6,8,9,14,14a-hexahydroindolo[3′,2′:4,5]pyrido[2,1-a]isoquinoline]  292%
